Data from patent EP4692094A1 (Beijing Konruns Pharmaceutical Co., Ltd., priority 2023, dated 2024).

Target: T1, KAT6A (Homo sapiens, UniProt Q92794)
T1 construct: purchased active motife (Active Motif) 81223
Assay: Enzymatic activity assay for KAT6A acetyltransferase (TR-FRET, acetylation of histone substrate H3)
Format: biochemical
Method: The acetylation effect of KAT6A on histone substrate H3 was determined using the TR-FRET (time-resolved fluorescence resonance energy transfer) method.
• 1) The compounds prepared in the examples of the present disclosure were each dissolved in dimethylsulfoxide to give solutions at a concentration of 10 mmol/L, and then the solutions were diluted to 0.2 mmol/L, i.e., 1 µL of the compound was added to 49 µL of DMSO, and 3-fold dilution was performed to give 10 concentrations. • 2) 50 nL of the test compounds (example compounds) were transferred to 384 reaction plates using Echo, two replicates for each compound, and the plates were centrifuged at a rotation speed of 1000 rpm for 1 min, the final concentration of dimethylsulfoxide (DMSO) being 0.5%. • 3) 2.5 µL of the reaction mixtures obtained in step 2 was added to the 384 reaction plates in step 2), and the plates were centrifuged at 1000 rpm for 1 min and incubated at 25 °C for 10 min. • 4) 2.5 µL of Bio-H3&AcCOA (acetyl-CoA) reaction solution was added to the 384 reaction plates in step 3), and the plates were centrifuged at a rotation speed of 1000 rpm for 1 min and incubated at 25 °C for 90 min. • 5) 5 µL of Eu-Ab& Ulight-SA detection solution was added to the 384 reaction plates in step 4), and the plates were centrifuged at 1000 rpm for 1 min and incubated at 25 °C for 60 min. • 6) The HTRF […] signals were read using a BMG high-throughput drug-screening multi-mode microplate reader.
The acetylation level of the histone H3 was analyzed by the GraphPad Prism 8 software. The reading of the negative control (0.5% DMSO wells) was set as 0% inhibition rate, and the reading of the positive control (wells with the highest concentration of the control compound) was set as 100% inhibition rate. The inhibition rates were calculated, and then IC50 values (half maximal inhibitory concentration) of test compounds were obtained by using a software nonlinear fitting formula; [formula]
Datapositive control: mean of positive control well values; Datanegative control: mean of negative control well values. Table 3. Enzymatic inhibitory activity of example compounds

T1 sequence (Q92794 whole entry): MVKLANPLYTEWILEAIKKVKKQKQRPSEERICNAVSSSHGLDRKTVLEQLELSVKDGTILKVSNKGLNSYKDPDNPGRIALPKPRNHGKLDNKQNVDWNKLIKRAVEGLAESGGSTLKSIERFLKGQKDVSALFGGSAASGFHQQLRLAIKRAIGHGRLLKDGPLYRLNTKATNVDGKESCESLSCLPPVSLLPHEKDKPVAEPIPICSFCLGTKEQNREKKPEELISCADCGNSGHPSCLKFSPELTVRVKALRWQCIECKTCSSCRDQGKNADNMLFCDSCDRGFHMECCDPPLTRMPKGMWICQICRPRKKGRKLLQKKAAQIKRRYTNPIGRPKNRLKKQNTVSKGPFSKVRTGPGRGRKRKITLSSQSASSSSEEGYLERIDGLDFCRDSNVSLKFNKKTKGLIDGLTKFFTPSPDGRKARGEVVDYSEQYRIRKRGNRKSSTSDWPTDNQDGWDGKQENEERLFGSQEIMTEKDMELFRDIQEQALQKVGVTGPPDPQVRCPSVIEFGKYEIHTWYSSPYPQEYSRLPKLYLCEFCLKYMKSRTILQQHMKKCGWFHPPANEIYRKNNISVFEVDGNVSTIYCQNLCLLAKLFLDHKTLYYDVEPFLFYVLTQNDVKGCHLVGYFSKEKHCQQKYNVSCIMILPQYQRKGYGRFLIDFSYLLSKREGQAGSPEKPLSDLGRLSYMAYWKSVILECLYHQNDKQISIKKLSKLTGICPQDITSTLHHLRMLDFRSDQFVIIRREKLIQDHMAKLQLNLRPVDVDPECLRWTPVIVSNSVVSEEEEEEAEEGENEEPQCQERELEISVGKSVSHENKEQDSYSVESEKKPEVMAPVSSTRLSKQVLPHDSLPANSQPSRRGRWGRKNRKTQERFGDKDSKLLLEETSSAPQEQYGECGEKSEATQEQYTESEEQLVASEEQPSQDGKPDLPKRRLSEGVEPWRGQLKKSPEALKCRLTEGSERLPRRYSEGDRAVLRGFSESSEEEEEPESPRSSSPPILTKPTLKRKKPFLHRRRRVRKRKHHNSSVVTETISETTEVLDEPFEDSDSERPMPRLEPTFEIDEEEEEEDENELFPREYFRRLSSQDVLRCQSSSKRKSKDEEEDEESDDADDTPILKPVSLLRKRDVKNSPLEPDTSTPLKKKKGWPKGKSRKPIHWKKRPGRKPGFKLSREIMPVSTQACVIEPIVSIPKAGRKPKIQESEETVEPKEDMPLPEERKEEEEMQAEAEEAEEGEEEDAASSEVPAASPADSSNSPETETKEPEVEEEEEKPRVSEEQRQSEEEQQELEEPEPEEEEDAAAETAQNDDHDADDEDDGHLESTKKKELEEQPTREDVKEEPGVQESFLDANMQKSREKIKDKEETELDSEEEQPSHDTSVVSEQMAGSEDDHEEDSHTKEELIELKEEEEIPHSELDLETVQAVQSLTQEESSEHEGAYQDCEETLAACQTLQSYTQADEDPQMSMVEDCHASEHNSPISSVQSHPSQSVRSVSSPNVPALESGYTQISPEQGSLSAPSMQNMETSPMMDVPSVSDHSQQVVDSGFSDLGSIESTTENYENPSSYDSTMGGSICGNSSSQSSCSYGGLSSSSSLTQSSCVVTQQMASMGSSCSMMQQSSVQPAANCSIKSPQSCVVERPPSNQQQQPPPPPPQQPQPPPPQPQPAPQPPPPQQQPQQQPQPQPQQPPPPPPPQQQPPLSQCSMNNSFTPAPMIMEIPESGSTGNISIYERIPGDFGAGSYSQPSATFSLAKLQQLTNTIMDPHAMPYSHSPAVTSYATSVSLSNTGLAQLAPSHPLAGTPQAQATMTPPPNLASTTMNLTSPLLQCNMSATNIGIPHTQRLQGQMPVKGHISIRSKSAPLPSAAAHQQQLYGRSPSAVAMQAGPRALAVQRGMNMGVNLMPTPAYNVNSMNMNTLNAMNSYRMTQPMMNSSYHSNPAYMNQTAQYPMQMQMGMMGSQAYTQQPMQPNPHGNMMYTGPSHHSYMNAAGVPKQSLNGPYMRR

| SMILES | IC50 [nM] |
| --- | --- |
| COc1nc(Cn2cccn2)cc2onc(NS(=O)(=O)c3ccc(C#CC4CC4)c4ccoc34)c12 [Example 90, N-(6-((1H-Pyrazol-1-yl)methyl)-4-methoxyisoxazolo[4,5-c]pyridin-3-yl)-4-(cyclopropylethynyl)benzofuran-7-sulfonamide] | 7.18 |
| COc1nc(Cc2ccccn2)cc2onc(NS(=O)(=O)c3cccc4c3OCCO4)c12 [Example 32, N-(4-Methoxy-6-(pyridin-2-ylmethyl)isoxazolo[4,5-c]pyridin-3-yl)-2,3-dihydrobenzo[b][1,4]dioxine-5-sulfonamide] | 34.7 |
| COc1nc(Cn2cccn2)cc2onc(NS(=O)(=O)c3ccc4c(c3)OC(F)(F)O4)c12 [Example 89, N-(6-((1H-Pyrazol-1-yl)methyl)-4-methoxyisoxazolo[4,5-c]pyridin-3-yl)-2,2-difluoro-1,3-benzodioxole-5-sulfonamide] | 16.8 |
| COc1c(Cl)c2c(c(OC)c1S(=O)(=O)Nc1noc3cc(Cn4cccn4)nc(OC)c13)CCC2 [Example 63, N-(6-((1H-Pyrazol-1-yl)methyl)-4-methoxyisoxazolo[4,5-c]pyridin-3-yl)-7-chloro-4,6-dimethoxy-2,3-dihydro-1H-indene-5-sulfonamide] | 5.98 |
| COc1nc(Cn2nccn2)cc2onc(NS(=O)(=O)c3cccc4c3OCCO4)c12 [Example 29, N-(6-((2H-1,2,3-Triazol-2-yl)methyl)-4-methoxyisoxazolo[4,5-c]pyridin-3-yl)-2,3-dihydrobenzo[b][1,4]dioxine-5-sulfonamide] | 1.57 |
| COc1cc2c(cc1S(=O)(=O)Nc1noc3cc(Cn4cccn4)nc(OC)c13)OC(C)(C)C2 [Example 105, N-(6-((1H-pyrazol-1-yl)methyl)-4-methoxyisoxazolo[4,5-c]pyridin-3-yl)-5-methoxy-2,2-dimethyl-2,3-dihydrobenzofuran-6-sulfonamide] | 2.18 |
| COc1nc(Cn2nccn2)cc2onc(NS(=O)(=O)c3cccc4c3ccn4C)c12 [Example 21, N-(6-((2H-1,2,3-Triazol-2-yl)methyl)-4-methoxyisoxazolo[4,5-c]pyridin-3-yl)-1-methyl-1H-indole-4-sulfonamide] | 75.9 |
| COc1nc(Cn2cccn2)cc2onc(NS(=O)(=O)c3ccc4oc(C)nc4c3)c12 [Example 52, N-(6-((1H-Pyrazol-1-yl)methyl)-4-methoxyisoxazolo[4,5-c]pyridin-3-yl)-2-methylbenzo[d]oxazole-5-sulfonamide] | 34.3 |
| COc1nc(Cn2cccn2)cc2onc(NS(=O)(=O)c3cccc4occc34)c12 [Example 47, N-(6-((1H-Pyrazol-1-yl)methyl)-4-methoxyisoxazolo[4,5-c]pyridin-3-yl)benzofuran-4-sulfonamide] | 4.67 |
| COc1cc2c(c(S(=O)(=O)Nc3noc4cc(Cn5cccn5)nc(OC)c34)c1)OCCC2 [Example 84, N-(6-((1H-Pyrazol-1-yl)methyl)-4-methoxyisoxazolo[4,5-c]pyridin-3-yl)-6-methoxy-3,4-dihydro-1H-benzopyran-8-sulfonamide] | 1.21 |
| COc1cc2c(c(OC)c1S(=O)(=O)Nc1noc3cc(Cn4cccn4)nc(OC)c13)CCO2 [Example 97, N-(6-((1H-pyrazol-1-yl)methyl)-4-methoxyisoxazolo[4,5-c]pyridin-3-yl)-4,6-dimethoxy-2,3-dihydrobenzofuran-5-sulfonamide] | 0.95 |
| COc1nc(Cn2cccn2)cc2onc(NS(=O)(=O)c3cccc4c3OCCC4)c12 [Example 7, N-(6-((1H-Pyrazol-1-yl)methyl)-4-methoxyisoxazolo[4,5-c]pyridin-3-yl)-3,4-dihydro-1H-benzopyran-8-sulfonamide] | 5.68 |
| COc1nc(Cn2cccn2)cc2onc(NS(=O)(=O)c3cccc4c3CCC4)c12 [Example 26, N-(6-((1H-Pyrazol-1-yl)methyl)-4-methoxyisoxazolo[4,5-c]pyridin-3-yl)-2,3-dihydro-1H-indene-4-sulfonamide] | 21.8 |
| COc1nc(Cn2cccn2)cc2onc(NS(=O)(=O)c3ccc4c(c3)CCCO4)c12 [Example 50, N-(6-((1H-Pyrazol-1-yl)methyl)-4-methoxyisoxazolo[4,5-c]pyridin-3-yl)-3,4-dihydro-1H-benzopyran-6-sulfonamide] | 8.67 |
| COc1cc(OC)c(S(=O)(=O)Nc2noc3cc(Cn4cccn4)nc(OC)c23)c2c1CCO2 [Example 98, N-(6-((1H-pyrazol-1-yl)methyl)-4-methoxyisoxazolo[4,5-c]pyridin-3-yl)-4,6-dimethoxy-2,3-dihydrobenzofuran-7-sulfonamide] | 0.84 |
| COc1nc(Cn2cccn2)cc2onc(NS(=O)(=O)c3ccc4ncsc4c3)c12 [Example 55, N-(6-((1H-Pyrazol-1-yl)methyl)-4-methoxyisoxazolo[4,5-c]pyridin-3-yl)benzothiazole-6-sulfonamide] | 8.79 |
| COc1nc(Cn2cccn2)cc2onc(NS(=O)(=O)c3cc(C4CC4)cc4c3OCCC4)c12 [Example 106, N-(6-((1H-pyrazol-1-yl)methyl)-4-methoxyisoxazolo[4,5-c]pyridin-3-yl)-6-cyclopropyl-3,4-dihydro-1H-benzopyran-8-sulfonamide] | 0.94 |

The next lines start with the values.

| IC50 [nM] | SMILES |
| --- | --- |
| 16.3 | COc1ccc2ccn(C)c2c1S(=O)(=O)Nc1noc2cc(Cn3cccn3)nc(OC)c12 [Example 56, N-(6-((1H-Pyrazol-1-yl)methyl)-4-methoxyisoxazolo[4,5-c]pyridin-3-yl)-6-methoxy-1-methyl-1H-indole-7-sulfonamide] |
| 4.56 | COc1nc(Cn2cccn2)cc2onc(NS(=O)(=O)c3ccc4occc4c3)c12 [Example 53, N-(6-((1H-Pyrazol-1-yl)methyl)-4-methoxyisoxazolo[4,5-c]pyridin-3-yl)benzofuran-5-sulfonamide] |
| 8.85 | COc1ccc(S(=O)(=O)Nc2noc3cc(Cn4cccn4)nc(OC)c23)c2occc12 [Example 64, N-(6-((1H-Pyrazol-1-yl)methyl)-4-methoxyisoxazolo[4,5-c]pyridin-3-yl)-4-methoxybenzofuran-7-sulfonamide] |
| 2.04 | COc1cc2c(cc1S(=O)(=O)Nc1noc3cc(Cn4cccn4)nc(OC)c13)OCC2(C)C [Example 101, N-(6-((1H-pyrazol-1-yl)methyl)-4-methoxyisoxazolo[4,5-c]pyridin-3-yl)-5-methoxy-3,3-dimethyl-2H-benzofuran-6-sulfonamide] |
| 0.66 | COc1ccc2c(c1S(=O)(=O)Nc1noc3cc(Cn4cccn4)nc(OC)c13)OCO2 [Example 58, N-(6-((1H-Pyrazol-1-yl)methyl)-4-methoxyisoxazolo[4,5-c]pyridin-3-yl)-5-methoxy-1,3-benzodioxole-4-sulfonamide] |
| 1.91 | COc1ccc2c(c1S(=O)(=O)Nc1noc3cc(Cn4cccn4)nc(OC)c13)CCC2 [Example 77, N-(6-((1H-Pyrazol-1-yl)methyl)-4-methoxyisoxazolo[4,5-c]pyridin-3-yl)-5-methoxy-2,3-dihydro-1H-indene-4-sulfonamide] |
| 67.8 | COc1nc(Cn2cccn2)cc2onc(NS(=O)(=O)c3cccc4ccn(C)c34)c12 [Example 49, N-(6-((1H-Pyrazol-1-yl)methyl)-4-methoxyisoxazolo[4,5-c]pyridin-3-yl)-1-methyl-1H-indole-7-sulfonamide] |
| 1.63 | COc1ccc(S(=O)(=O)Nc2noc3cc(Cn4cccn4)nc(OC)c23)c2c1CCCO2 [Example 95, N-(6-((1H-Pyrazol-1-yl)methyl)-4-methoxyisoxazolo[4,5-c]pyridin-3-yl)-5-methoxy-3,4-dihydro-1H-benzopyran-8-sulfonamide] |
| 0.83 | [2H]c1cc2ccc(OC)c(S(=O)(=O)Nc3noc4cc(Cn5cccn5)nc(OC)c34)c2o1 [Example 102, N-(6-((1H-pyrazol-1-yl)methyl)-4-methoxyisoxazolo[4,5-c]pyridin-3-yl)-6-methoxybenzofuran-7-sulfonamide-2-d] |
| 2.01 | COc1ccc2cc(C)oc2c1S(=O)(=O)Nc1noc2cc(Cn3cccn3)nc(OC)c12 [Example 65, N-(6-((1H-Pyrazol-1-yl)methyl)-4-methoxyisoxazolo[4,5-c]pyridin-3-yl)-6-methoxy-2-methylbenzofuran-7-sulfonamide] |
| 2.41 | COc1ccc2ccoc2c1S(=O)(=O)Nc1noc2cc(Cn3cc(F)cn3)nc(OC)c12 [Example 68, N-(6-((4-Fluoro-1H-pyrazol-1-yl)methyl)-4-methoxyisoxazolo[4,5-c]pyridin-3-yl)-6-methoxvbenzofuran-7-sulfonamide] |
| 1.22 | COc1ccc2c(c1S(=O)(=O)Nc1noc3cc(Cn4cccn4)nc(OC)c13)OC(C)C2 (centres unmarked) [Example 66, N-(6-((1H-Pyrazol-1-yl)methyl)-4-methoxyisoxazolo[4,5-c]pyridin-3-yl)-6-methoxy-2-methyl-2,3-dihvdrobenzofuran-7-sulfonamide] |
